*1 amine or outer side, *2 acyl side, *3 side chain or, on linkers, in order; H or OH if unused. Where a SMILES comes first, the peptide text is derived from it. Bridges are numbered along the chain shown (N, C = ends). Roman numbers before positions name the chains, in order. Side-chain parts run from the residue outwards. [ ]: non-standard residue; d: D form. The star is where a group is joined. C20 diacid = O=C(O)CCCCCCCCCCCCCCCCCCC(=O)*; C18 diacid = O=C(O)CCCCCCCCCCCCCCCCC(=O)*; γGlu = O=C(O)[C@H](CCC(=O)[*:2])N[*:1]; εLys = N[C@@H](CCCCN[*:1])C(=O)[*:2]; pGlu = O=C1CC[C@@H](C(=O)O)N1; αMeL = CC(C)C[C@](C)(N)C(=O)O; AEEA = NCCOCCOCC(=O)O; Aib = CC(C)(N)C(=O)O; Ahx = NCCCCCC(=O)O
Columns and labels:
human CRHR1 = target: T1, human CRHR1 (Homo sapiens, UniProt P34998); assay: Human CRHR1 cAMP assay (HTRF) in HEK293 cells stably expressing human CRHR1; format: cell-based; conditions: HEK293 cells overexpressing human CRHR1; relative EC50, maximum 66 nM human UCN1; mean ± SE; read-out: hCRHR1 cAMP EC50 (pM, ± SE)
T1 construct: expressed in transfected cells
T1 sequence (P34998 24-415): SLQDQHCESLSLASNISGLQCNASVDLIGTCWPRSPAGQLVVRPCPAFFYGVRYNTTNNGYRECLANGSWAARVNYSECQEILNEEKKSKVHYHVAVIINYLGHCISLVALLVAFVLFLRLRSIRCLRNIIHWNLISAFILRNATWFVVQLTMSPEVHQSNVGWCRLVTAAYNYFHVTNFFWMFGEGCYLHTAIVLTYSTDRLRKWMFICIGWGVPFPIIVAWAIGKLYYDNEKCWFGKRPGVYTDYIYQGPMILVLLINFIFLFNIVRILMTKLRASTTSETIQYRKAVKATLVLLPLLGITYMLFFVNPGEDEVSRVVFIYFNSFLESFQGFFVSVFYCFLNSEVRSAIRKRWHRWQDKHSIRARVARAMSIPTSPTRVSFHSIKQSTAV
How it was run: (§1)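 Peptides were tested as 1:3 dilution series on thawed HEK293 cells stably expressing the receptor, in MEM with 0.1% casein, 5 mM HEPES pH 7.4 and 0.25 mM IBMX. CRHR1 cells (25,000/well) were incubated 1 h at 37° C; CRHR2 cells (5,000/well) 30 min at room temperature. cAMP was read by HTRF (665/620 nm) against a cAMP standard curve.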

human CRHR2 = target: T2, human CRHR2 (Homo sapiens, UniProt Q13324); assay: Human CRHR2 cAMP assay (HTRF) in HEK293 cells stably expressing human CRHR2; format: cell-based; conditions: HEK293 cells overexpressing human CRHR2; relative EC50, maximum 10 nM human UCN2; mean ± SE; read-out: hCRHR2 cAMP EC50 (pM, ± SE)
T2 construct: expressed in transfected cells
T2 sequence (Q13324 1-438 isoform Q13324-2): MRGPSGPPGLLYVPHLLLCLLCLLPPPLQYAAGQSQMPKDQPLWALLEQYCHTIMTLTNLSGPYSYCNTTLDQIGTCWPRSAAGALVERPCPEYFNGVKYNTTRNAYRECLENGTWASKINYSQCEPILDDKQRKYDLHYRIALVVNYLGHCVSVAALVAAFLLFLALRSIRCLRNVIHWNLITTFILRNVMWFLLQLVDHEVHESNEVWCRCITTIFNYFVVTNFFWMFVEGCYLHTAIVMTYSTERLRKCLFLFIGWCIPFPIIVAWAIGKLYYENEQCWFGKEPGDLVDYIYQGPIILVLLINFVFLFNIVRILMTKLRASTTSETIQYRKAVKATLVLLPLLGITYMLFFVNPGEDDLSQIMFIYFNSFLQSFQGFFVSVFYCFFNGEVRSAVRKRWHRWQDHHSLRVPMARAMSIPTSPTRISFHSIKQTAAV
How it was run: as §1

| Compound | EC50 (human CRHR1) [pM] | EC50 (human CRHR2) [pM] |
| --- | --- | --- |
| H-GSPSIVTS[αMeL]DVPT[Aib][αMeL]LQKILEQERAEKARQQATEAAEILAQV-NH2 [SEQ ID NO: 27] | > 1e+07 | 23.6 ± 2.9 |
| I: Ac-GSPSIVTS[αMeL]DVPT[Aib][αMeL]LQKILEQERAEKARQQAKEAAEILAQV-NH2 / II: {C20 diacid}-EPEPEP[γGlu] (amide I:33-II:C) [SEQ ID NO: 16, Ac-GSPSIVTS αMeL DVPT Aib αMeL LQKILEQERAEKARQQAK(γE-PEPEPE-CO-(CH2)18-CO2H)EAAEILAQV-NH2] | > 1e+07 | 12.5 ± 1.1 |
| [pGlu]GSPSGIVTS[αMeL]DVPT[Aib][αMeL]LQKILEQERAEKARQQAK([γGlu-AEEA-εLys-C18 diacid])EAAEILAQV-NH2 [SEQ ID NO: 24, Pyr-GSPSGIVTS αMeL DVPT Aib αMeL LQKILEQERAEKARQQAK(γE-(2-[2-(2-Amino-ethoxy)-ethoxy]-acetyl)-ϵK-CO-(CH2)16-CO2H)EAAEILAQV-NH2] | > 1e+07 | 21.7 ± 3.6 |
| {C20 diacid}-K[AEEA][γGlu]GSPSIVTS[αMeL]DVPT[Aib][αMeL]LQKILEQERAEKARQQATEAAEILAQV-NH2 [SEQ ID NO: 26] | > 1e+07 | 6.9 ± 0.7 |
| Ac-PPPIVTS[αMeL]D[dV]PT[Aib][αMeL]LQK[Aib]LEQERAEKARQQAK([γGlu-AEEA-εLys-C20 diacid])ENTEILAQV-NH2 [SEQ ID NO: 46, Ac-PPPIVTS αMeL D (D-Val) PT Aib αMeL LQK Aib LEQERAEKARQQAK(γE-(2-[2-(2-Amino-ethoxy)-ethoxy]-acetyl)-ϵK-CO-(CH2)18-CO2H)ENTEILAQV-NH2] | > 1e+07 | 13 ± 1.1 |
| Ac-GSPSIVTS[αMeL]DVPT[Aib][αMeL]LQKILEQERAEKARQQAK([γGlu-Pro-Lys-Glu-Ahx-C20 diacid])EAAEILAQV-NH2 [SEQ ID NO: 11, Ac-GSPSIVTS αMeL DVPT Aib αMeL LQKILEQERAEKARQQAK(γE-PKE-Ahx-CO-(CH2)18-CO2H)EAAEILAQV-NH2] | > 1e+07 | 8.3 ± 1.4 |
| {C18 diacid-εLys-AEEA-γGlu}-GSPSIVTS[αMeL]DVPT[Aib][αMeL]LQKILEQERAEKARQQATEAAEILAQV-NH2 [SEQ ID NO: 28] | > 1e+07 | 12.8 ± 2 |
| Ac-GSPSIVTS[αMeL]DVPT[Aib][αMeL]LQKILEQERAEKARQQAK([γGlu-AEEA-εLys-C18 diacid])EAAEILAQV-NH2 [SEQ ID NO: 21, Ac-GSPSIVTS αMeL DVPT Aib αMeL LQKILEQERAEKARQQAK(γE-(2-[2-(2-Amino-ethoxy)-ethoxy]-acetyl)-ϵK-CO-(CH2)16-CO2H)EAAEILAQV-NH2] | > 1e+07 | 16.3 ± 1.3 |
| Ac-GSPSIVTS[αMeL]DVPT[Aib][αMeL]LQKILEQERAEKARQQAK([γGlu-Pro-Lys-Glu-εLys-C20 diacid])EAAEILAQV-NH2 [SEQ ID NO: 13, Ac-GSPSIVTS αMeL DVPT Aib αMeL LQKILEQERAEKARQQAK(γE-PKE-ϵK-CO-(CH2)18-CO2H)EAAEILAQV-NH2] | > 1e+07 | 7.9 ± 0.3 |
| CC[C@H](C)[C@H](NC(C)=O)C(=O)N[C@H](C(=O)N[C@H](C(=O)N[C@@H](CO)C(=O)N[C@@](C)(CC(C)C)C(=O)N[C@@H](CC(=O)O)C(=O)N[C@@H](C(=O)N1CCC[C@H]1C(=O)N[C@H](C(=O)NCC(=O)N[C@@](C)(CC(C)C)C(=O)N[C@@H](CC(C)C)C(=O)N[C@@H](CCC(N)=O)C(=O)N[C@H](C(=O)N[C@@H](CCCCN)C(=O)N[C@@H](CC(C)C)C(=O)N[C@@H](CCC(=O)O)C(=O)N[C@@H](CCC(N)=O)C(=O)N[C@@H](CCC(=O)O)C(=O)N[C@@H](CCCNC(=N)N)C(=O)N[C@@H](C)C(=O)N[C@@H](CCC(=O)O)C(=O)N[C@@H](CCCCN)C(=O)N[C@@H](C)C(=O)N[C@@H](CCCNC(=N)N)C(=O)N[C@@H](CCC(N)=O)C(=O)N[C@@H](CCC(N)=O)C(=O)N[C@@H](C)C(=O)N[C@@H](CCCCNC(=O)COCCOCCNC(=O)CC[C@H](NC(=O)CC[C@H](NC(=O)CCCCCCCCCCCCCCCCCCC(=O)O)C(=O)O)C(=O)O)C(=O)N[C@@H](CCC(=O)O)C(=O)N[C@@H](CC(N)=O)C(=O)N[C@H](C(=O)N[C@@H](CCC(=O)O)C(=O)N[C@H](C(=O)N[C@@H](CC(C)C)C(=O)N[C@@H](C)C(=O)N[C@@H](CCC(N)=O)C(=O)N[C@H](C(N)=O)C(C)C)[C@@H](C)CC)[C@@H](C)O)[C@@H](C)CC)[C@@H](C)O)C(C)C)[C@@H](C)O)C(C)C [SEQ ID NO: 44, Ac-IVTS αMeL D (D-Val) PTG αMeL LQIKLEQERAEKARQQAK((2-[2-(2-Amino-ethoxy)-ethoxy]-acetyl)-(γE)2-CO-(CH2)18-CO2H)ENTEILAQV-NH2] (Ac-IVTS[αMeL]D[dV]PTG[αMeL]LQIKLEQERAEKARQQAK([AEEA-γGlu-γGlu-C20 diacid])ENTEILAQV-NH2) | > 1e+07 | 5.4 ± 0.5 |
| I: Ac-GSPSIVTS[αMeL]DVPT[Aib][αMeL]LQKILEQERAEKARQQAKEAAEILAQV-NH2 / II: {C20 diacid-γGlu}-EKEKEK[AEEA] (amide I:33-II:C) [SEQ ID NO: 9, Ac-GSPSIVTS αMeL DVPT Aib αMeL LQKILEQERAEKARQQAK((2-[2-(2-Amino-ethoxy)-ethoxy]-acetyl)-KEKEKE-γE-CO-(CH2)18-CO2H)EAAEILAQV-NH2] | > 1e+07 | 15.5 ± 3.3 |
| Ac-GSPSIVTS[αMeL]DVPT[Aib][αMeL]LQKILEQERAEKARQQAK([γGlu-AEEA-AEEA-εLys-C20 diacid])EAAEILAQV-NH2 [SEQ ID NO: 17, Ac-GSPSIVTS αMeL DVPT Aib αMeL LQKILEQERAEKARQQAK(γE-(2-[2-(2-Amino-ethoxy)-ethoxy]-acetyl)2-ϵK-CO-(CH2)18-CO2H)EAAEILAQV-NH2] | > 1e+07 | 9.5 ± 0.9 |

From patent US20250163119A1, “COMPOUNDS FOR THE TREATMENT OF DIABETES OR OBESITY” (Eli Lilly and Company, priority 2023, published 2025)
